In publication PMC7011920, “Synthesis and biological evaluation of stilbene derivatives coupled to NO donors as potential antidiabetic agents” (Journal of Enzyme Inhibition and Medicinal Chemistry, 2018):

Experiments:
[1] = test system: AGEs (advanced glycation end products) formation; assay: In vitro inhibitory activity of AGEs formation (bovine serum albumin/glucose, fluorescence)
Protocol: Advanced glycation end products are a group of complex and heterogeneous compounds, which are implicated in a number of biochemical abnormalities associated with diabetes[21]^,[22]. Therefore, the discovery of AGEs inhibitors would be beneficial to the prevention and treatment of diabetic or other pathogenic complications.
To prepare the AGE reaction solution, 10 mg/ml of bovine serum albumin in 50 mM PBS (pH 7.4) was added to 0.2 M glucose, and 0.02% sodium azide was added to prevent bacterial growth. The reaction mixture (3 ml) was then mixed with various concentrations (0.5–1000 µg/ml) of the target compounds (1 ml) dissolved in DMSO. After incubating at 37 °C for 14 d, the fluorescence intensity of AGE was determined by a fluorospectrophotometer (PE, Cincinnati, OH) with excitation and emission wavelengths at 350 nm and 420 nm[30], respectively. All experiments were run in triplicate. Aminoguanidine hydrochloride was used as a reference compound. The inhibition rate of AGEs formation and the IC50 value of each sample were calculated according to the formula. Inhibition rate %={[(AC−AB)−(AS−ASB)]/(AC−AB)}×100% where AC is the absorbance of control group (1.0 ml glucose +1.0 ml bovine serum albumin +1.0 ml sodium azide +1.0 ml DMSO); AB is the absorbance of blank group (1.0 ml PBS +1.0 ml bovine serum albumin +1.0 ml sodium azide +1.0 ml DMSO); AS is the absorbance of sample group (1.0 ml glucose +1.0 ml bovine serum albumin +1.0 ml sodium azide +1.0 ml target compound solution or aminoguanidine hydrochloride solution); ASB is the absorbance of sample blank group (1.0 ml PBS +1.0 ml bovine serum albumin +1.0 ml sodium azide +1.0 ml target compound solution or aminoguanidine hydrochloride solution).

[2] = Oral toxicity to mice (Lorke's method); conditions: both sexes, mouse, in vivo, Kunming mice, 14 days observation
Protocol: With reference to Lorke’s method, Kunming mice were used as targets to estimate oral toxicity of each compound to mice. We select compounds 3c, 3e, and 7c at concentrations of 10, 100, and 1000 mg/kg to test their oral toxicity in the first phase, and 1600, 2900, and 5000 mg/kg at the second phase. […] No death and no appetite-suppressant effect were detected in the tested mice in 14 days. […].
Experiments were performed on Kunming mice (male and female half, body weight range, 25–30 g). Mice were housed in a climate and light controlled room with a 12 h light/dark cycle. Twelve hours before experiments, food was withheld, but animals had free access to drinking water. The compounds were suspended in vehicle (Tween-80, 0.2% in saline). The concentrations were adjusted to orally administrate 0.2 ml/10 g of bw (body weight). Mice were treated in two phases. In the first, intragastric doses of 10, 100 and 1000 mg/kg of bw of compounds were administered. On the second, the doses were adjusted to 1600, 2900 and 5000 mg/kg of bw of compounds. In both phases, mice were observed daily in a period of 14 days for mortality, toxic effects and/or changes in behavioural pattern. At the end of the experiments, the mice were sacrificed in a CO2 chamber.

[3] = test system: STZ-induced diabetic mice; assay: Acute hypoglycaemic assay in STZ-diabetic mice; format: in vivo; conditions: for Blood glucose concentration: mean ± SEM, six mice
Protocol: The antidiabetic activity was determined by using a standard method. […] Especially, compound 7c caused significant decreases in blood glucose levels when compared with vehicle-treated groups (p < .05). […] In STZ-diabetic animals, the hypoglycaemic effect of pterostilbene (40 mg/kg of bw) was larger than 50% since 5 h and persisted throughout the experiment. Target compound 7c (40 mg/kg of bw) caused significant decreases in blood glucose levels compared with pterostilbene (40 mg/kg of bw).
Type II DM was induced in mice by a single intraperitoneal injection of freshly prepared STZ (Sigma Aldrich, St. Louis, MO) dissolved in 0.1 M citrate buffer, pH 4.5, in a […] of 120 mg/kg of bw. After seven days of STZ administration, blood glucose levels of each mouse were determined. Mice with blood glucose levels higher than 11 mM were considered diabetic and were included in the study.
STZ-induced diabetic mice and normal mice were placed in single cages with wire-net floors and deprived of food for 12 h before experimentation but allowed free access to tap water throughout. The compounds (at the doses of 10, 40, and 100 mg/kg of bw) were suspended in 0.05% Tween-80 in saline solution. Glibenclamide (10 mg/kg of bw) was suspended in the same vehicle. The target compounds were freshly prepared immediately before experimentation and administered by the intragastrical route at the doses of 10 ml/kg of bw. Control mice received only the vehicle (0.05% Tween-80 in saline solution) by the same route. Blood glucose levels were measured at 0, 1.5, 3, 5, 7, and 9 h after drugs administration.

COc1cc(/C=C/c2ccc(OCCCCCCO[N+](=O)[O-])cc2)cc(OC)c1 [3c]
IC50 ([1]; 50% inhibition of fluorescence intensity of AGE relative to 0.1% DMSO, mean ± SD (n = 3)): 1490 ± 200 nM
AGEs formation inhibitory activity compared with positive reference AG ([1]; ratio to AG): over 100 folds
LD50 at 14 days [2]: > 5000 mg/kg
Blood glucose concentration ([3]; dose 10 mg/kg per os, 0 h): 22.6 ± 7.0 mM
Blood glucose concentration ([3]; dose 10 mg/kg per os, 1.5 h): 18.1 ± 7.3 mM
% Variation of glycaemia ([3]; dose 10 mg/kg per os, 1.5 h vs 0 h): –20.13%
Blood glucose concentration ([3]; dose 10 mg/kg per os, 3 h): 17.0 ± 6.6 mM
% Variation of glycaemia ([3]; dose 10 mg/kg per os, 3 h vs 0 h): –24.78%
Blood glucose concentration ([3]; dose 10 mg/kg per os, 5 h): 16.8 ± 6.1 mM
% Variation of glycaemia ([3]; dose 10 mg/kg per os, 5 h vs 0 h): –25.66%
Blood glucose concentration ([3]; dose 10 mg/kg per os, 7 h): 15.7 ± 4.3 mM
% Variation of glycaemia ([3]; dose 10 mg/kg per os, 7 h vs 0 h): –30.53%
Blood glucose concentration ([3]; dose 10 mg/kg per os, 9 h): 13.2 ± 3.5 mM
% Variation of glycaemia ([3]; dose 10 mg/kg per os, 9 h vs 0 h): –41.59%
Blood glucose concentration ([3]; dose 40 mg/kg per os, 0 h): 21.7 ± 5.7 mM
Blood glucose concentration ([3]; dose 40 mg/kg per os, 1.5 h): 17.2 ± 5.6 mM
% Variation of glycaemia ([3]; dose 40 mg/kg per os, 1.5 h vs 0 h): –20.74%
Blood glucose concentration ([3]; dose 40 mg/kg per os, 3 h): 16.3 ± 7.5 mM
% Variation of glycaemia ([3]; dose 40 mg/kg per os, 3 h vs 0 h): –25.04%
Blood glucose concentration ([3]; dose 40 mg/kg per os, 5 h): 15.7 ± 6.4 mM
% Variation of glycaemia ([3]; dose 40 mg/kg per os, 5 h vs 0 h): –27.57%
Blood glucose concentration ([3]; dose 40 mg/kg per os, 7 h): 14.3 ± 9.6 mM
% Variation of glycaemia ([3]; dose 40 mg/kg per os, 7 h vs 0 h): –34.02%
Blood glucose concentration ([3]; dose 40 mg/kg per os, 9 h): 9.9 ± 4.6 mM
% Variation of glycaemia ([3]; dose 40 mg/kg per os, 9 h vs 0 h): –54.30%
Blood glucose concentration ([3]; dose 100 mg/kg per os, 0 h): 18.6 ± 1.9 mM
Blood glucose concentration ([3]; dose 100 mg/kg per os, 1.5 h): 15.9 ± 3.6 mM
% Variation of glycaemia ([3]; dose 100 mg/kg per os, 1.5 h vs 0 h): –14.34%
Blood glucose concentration ([3]; dose 100 mg/kg per os, 3 h): 15.2 ± 3.0 mM
% Variation of glycaemia ([3]; dose 100 mg/kg per os, 3 h vs 0 h): –18.28%
Blood glucose concentration ([3]; dose 100 mg/kg per os, 5 h): 15.1 ± 3.7 mM
% Variation of glycaemia ([3]; dose 100 mg/kg per os, 5 h vs 0 h): –19.00%
Blood glucose concentration ([3]; dose 100 mg/kg per os, 7 h): 13.4 ± 4.7 mM
% Variation of glycaemia ([3]; dose 100 mg/kg per os, 7 h vs 0 h): –28.23%
Blood glucose concentration ([3]; dose 100 mg/kg per os, 9 h): 11.1 ± 3.0 mM
% Variation of glycaemia ([3]; dose 100 mg/kg per os, 9 h vs 0 h): –40.32%
